Data from article PMC12648288, “Drastic Impact of Donor Substituents on Xanthenes in the PDT of Glioblastoma” (JACS Au, 2025).
Like-named read-outs stand apart in the source and are kept apart here.

Legend:
[1] = n-octanol/PBS distribution (LogP); type: physicochemical; conditions: Distribution coefficient in n-octanol/PBS solution
[2] = type: physicochemical; conditions: pH 5.4
Experimental: Before singlet oxygen trapping experiments were conducted, the photostability of NSeMorph and NSeAze was evaluated under irradiation with a 660 nm LED light source (24.3 mW/cm^2). […] Subsequently, their singlet oxygen generation capabilities were assessed in PBS buffer. 2,2′-(Anthracene-9,10-diyl)-bis(methylene)-dimalonic acid was used as a singlet oxygen trap to determine the quantum yields of singlet oxygen generation (ΦΔ). […] Furthermore, the ROS generation capabilities of the PSs were also evaluated using singlet oxygen sensor green (SOSG).
The gradual but pronounced lysosomal accumulation over time of NSeMoprh, coupled with only moderate mitochondrial targeting, restrict its ability to induce cell death via direct mitochondrial ROS production effectively. Conversely, NSeAze achieves rapid and efficient mitochondrial localization within the first hour of treatment in addition to significant lysosomal localization as well. […] To eliminate the possibility of degradation in lysosomes due to their acidic nature, the stabilities of both NSeMorph and NSeAze were evaluated at different pHs under both dark and light conditions.
Figure S5. Photostability of NSeMorph (20 μM) in sodium citrate buffer (1% DMSO) a. pH 5.4 and e. pH 6.4 upon irradiation with LED light (660 nm, 100 s total irradiation time) and its time dependent absorbance profile at b. pH 5.4, f. pH 6.4. […]

[3] = system: U118MG glioblastoma cells; assay: MTT cell viability, dark and PDT; type: cell-based, human
Experimental: (§1) The time- and concentration-dependent effects of NSeAze and NSeMorph on glioblastoma cells were determined by using the MTT assay (Figure S7). In this regard, U118MG and U87MG cells were administered with NSeMorph (0.5–20 μM) and NSeAze (0.01–2.5 μM) for 24 h to evaluate their dark toxicity. Before PDT application, both cell lines were treated as indicated for 1 h and then exposed to 660 nm LED light for 2 and 1 h, respectively (Figure ). Following overnight incubation, the resulting cell viability was calculated and compared to the effect of both compounds in the absence of irradiation. […]
(§2) Cell Culture and Treatment
(§3) Human glioblastoma cell lines (U118MG and U87MG) and healthy mouse fibroblast cells (L929) were cultured in DMEM high glucose medium supplemented with 10% fetal bovine serum (FBS), 2 mM glutamine, 1% penicillin/stremptomycin, 0.5% amphotericin B, and incubated at 37 °C with 5% CO2. NSeMorph and NSeAze were dissolved in cell culture-grade DMSO and further diluted in complete medium for experimental use. For phototoxicity analysis, cells were administered with NSeMorph […]
(§4) mW/cm2) irradiation for 2 h in NSeMorph-treated groups and 1 h in NSeAze-treated groups. Then, each group were incubated for further 24 h in the dark to allow for resting. On the other hand, the dark toxicity of both agents was detected following the same treatment under identical conditions without LED irradiation. To determine the involvement of distinct ROS types, cells were pretreated for 1 h with selective […]
(§5) scavengers prior to photosensitizer exposure. The scavengers included NAC (5 mM), NaN3 (5 mM), histidine (5 mM), Tiron (100 µM), mannitol (25 mM) and Trolox (25 µM).
(§6) Cell viability was then assessed following irradiation. For index calculations, all cells were treated with the increasing concentrations (0.5-500 µM) of NSeMorph and NSeAze for 24 h. Final DMSO concentrations were kept below 0.5% (v/v) in all […]
(§7) PI=IC50, dark /IC50, light
(§8) SI= IC50, light, healthy cells/IC50, light, cancer cells
(§9) TI= IC50, dark, healthy cells/IC50, light, cancer cells
(§10) The viability of cells treated with NSeMorph and NSeAze was determined with MTT (3-[4,5-dimethylthiazol-2-yl]-2,5-diphenyltetrazoliumbromide) assay. Following the administration of both compounds, the medium was discarded and cells were treated with fresh media containing MTT (0.5 mg/ml) for 2-4 h at 37 °C. Formazan crystals were then solubilized in 10% SDS in 0.01 N HCl, and absorbance was measured at 490 and 570 nm wavelength using microplate reader (Multiskan Sky, Thermo Scientific). Data were normalized to vehicle (DMSO)-treated controls. IC50 values were calculated using nonlinear regression analysis in GraphPad Prism 9.02 (GraphPad Software Inc.). All experiments were performed in technical and biological replicates

U87MG glioblastoma cells = assay: MTT cell viability, dark and PDT; type: cell-based, human
Experimental: as §1, §2, §3, §4, §5, §6, §7, §8, §9, §10

[4] = Homo sapiens, U-118-MG, 1 h incubation, 660 nm LED 2 h (NSeMorph) or 1 h (NSeAze), read-out: IC50 (light)
[5] = Homo sapiens, U-118-MG, 24 h, dark, 24 h, read-out: IC50 (dark)
[6] = Homo sapiens, U-87 MG, 1 h incubation, 660 nm LED 2 h (NSeMorph) or 1 h (NSeAze), read-out: IC50 (light)
[7] = Homo sapiens, U-87 MG, 24 h, dark, 24 h, read-out: IC50 (dark)
[8] = 1 h incubation, 660 nm LED 2 h (NSeMorph) or 1 h (NSeAze), read-out: IC50 (light)

c1cc2nc3ccc(=[N+]4CCC4)cc-3[se]c2cc1N1CCC1 [NSeAze]
logP [1]: 0.81
Photostability [2]: no significant photodecomposition
IC50 ([3]; Homo sapiens, U-118-MG, 1 h, 660 nm LED 1 h, read-out: IC50 (light)): 0.461 µM
IC50 [3, 4]: 0.46 ± 0.02 µM
IC50 [3, 5]: 60.4 ± 2.6 µM
IC50 (U87MG glioblastoma cells; Homo sapiens, U-87 MG, 1 h, 660 nm LED 1 h, read-out: IC50 (light)): 0.456 µM
IC50 (U87MG glioblastoma cells; [6]): 0.38 µM
IC50 (U87MG glioblastoma cells; [7]): 65.8 ± 2.51 µM
IC50 (U87MG glioblastoma cells; dark, 24 h, read-out: IC50 (dark)): 65.9 ± 2.5 µM

c1cc2nc3ccc(=[N+]4CCOCC4)cc-3[se]c2cc1N1CCOCC1 [NSeMorph]
logP [1]: -0.42
Photostability [2]: no significant photodecomposition
IC50 [3, 8]: 8.02 ± 0.34 µM
IC50 [3, 4]: 8 µM
IC50 [3, 5]: 375 ± 17.4 µM
IC50 (U87MG glioblastoma cells; [8]): 15.8 ± 0.84 µM
IC50 (U87MG glioblastoma cells; [6]): 15.8 µM
IC50 (U87MG glioblastoma cells; [7]): > 500 µM
